Source: patent US10800789B2, “Antiviral compounds” (Gilead Pharmasset LLC, priority 2012, dated 2020)
Read-outs that look alike come from different tables or passages of the source.

Key:
[1] = test system: stable HCV 1b RLuc replicon cells (dicistronic genotype 1b Con1 replicon); experiment: Renilla luciferase HCV replicon reporter assay, genotype 1b; format: cell-based; conditions: Hepatitis C virus, 72 h, stable 1b Con1 RLuc replicon cells, 72 hours; read-out: 1b
Method in brief: (§1)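 Cells carrying the stable or transiently transfected (Huh-Lunet) dicistronic RLuc replicons received 3-fold serial compound dilutions from 10 mM DMSO stocks. After 72 h, cells were lysed and Renilla luciferase read. DMSO served as the no-inhibition control and ITMN-191 above 100×EC50 as the positive control; EC50 by non-linear regression.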

[2] = test system: stable HCV 1a RLuc replicon cells (dicistronic genotype 1a H77 replicon); experiment: Renilla luciferase HCV replicon reporter assay, genotype 1a; format: cell-based; conditions: Hepatitis C virus, 72 h, stable 1a H77 RLuc replicon cells
Method in brief: as §1

[3] = test system: stable HCV 2a JFH-1 Rluc replicon cells (L31 present in NS5A); experiment: Renilla luciferase HCV replicon reporter assay, genotype 2a JFH-1; format: cell-based; conditions: Hepatitis C virus
Method in brief: as §1

[4] = test system: NS5A chimeric genotype 2a JFH-1 replicon with genotype 2a J6 strain NS5A gene (M31 present); experiment: Replicon assay, genotype 2a J6 NS5A chimera; format: cell-based, HCV; conditions: Hepatitis C virus
Method in brief: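 EC50 was fitted by non-linear regression to Renilla luciferase signal after 72 h of exposure to 3-fold serially diluted compound (10 mM DMSO stocks). Controls were DMSO (none) and ITMN-191 above 100×EC50 (full). Chimeric 2a replicons were used either stable or transiently transfected into Huh-Lunet cells.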

[5] = test system: NS5A chimeric genotype 2a JFH-1 replicon with genotype 2b MD2b-1 strain NS5A gene (M31 present); experiment: Replicon assay, genotype 2b NS5A chimera; format: cell-based, HCV; conditions: Hepatitis C virus
Method in brief: as §1

[6] = test system: NS5A chimeric genotype 1b Con1 replicon with genotype 3a S52 strain NS5A gene; experiment: Replicon assay, genotype 3a NS5A chimera; format: cell-based, HCV; conditions: Hepatitis C virus
[7] = test system: NS5A chimeric genotype 1b Con1 replicon with genotype 4a ED43 strain NS5A gene; experiment: Replicon assay, genotype 4a NS5A chimera; format: cell-based, HCV; conditions: Hepatitis C virus
[8] = read-out: 2a JFH (nM), genotype 2a JFH-1 replicon (L31 in NS5A), stable cells
[9] = read-out: 2a JFH, stable 2a JFH-1 Rluc replicon cells, L31 in NS5A, activity range
[10] = read-out: 2a J6 (t) (nM), genotype 2a J6 NS5A chimeric replicon (M31), transiently transfected (t) into Huh-Lunet cells
[11] = read-out: 2a J6 (t), transiently transfected (t) into Huh-Lunet cells, activity range
[12] = 2BS, read-out: 2b (s), stably replicating replicon cells (s), activity range
[13] = read-out: 2b (s) (nM), genotype 2b MD2b-1 NS5A chimeric replicon (M31), stably replicating replicon cells (s)
[14] = read-out: 3a (s) (nM), genotype 3a NS5A chimeric replicon, stable replicon cells (s)
[15] = read-out: 3a (s), (s), activity range
[16] = read-out: 4a (s) (nM), genotype 4a NS5A chimeric replicon, stable replicon cells (s)
[17] = read-out: 4a (s), (s), activity range

SMILES	EC50 [1]	EC50 [2]	EC50 ([2]; activity range)	EC50 [3, 8]	EC50 [3, 9]	EC50 [4, 10]	EC50 [4, 11]	EC50 [5, 12]	EC50 [5, 13]	EC50 [6, 14]	EC50 [6, 15]	EC50 [7, 16]	EC50 [7, 17]	EC50 ([4]; read-out: 2a J6 (s) (nM), genotype 2a J6 NS5A chimeric replicon (M31), stably replicating replicon cells (s))	EC50 ([4]; read-out: 2a J6 (s), stably replicating replicon cells (s), activity range)
CC[C@H]1CC[C@@H](c2ncc(-c3ccc4c(c3)COc3cc5c(ccc6nc([C@@H]7C[C@H](C)CN7C(=O)[C@@H](NC(=O)OC)C7CCOCC7)[nH]c65)cc3-4)[nH]2)N1C(=O)[C@@H](NC(=O)OC)C(C)C [HZ]	0.025 nM	0.012 nM	< 0.1 nM	0.014 nM	< 0.1 nM	0.023 nM	< 0.1 nM	< 0.1 nM	0.073 nM	0.14 nM	0.1 to 0.999 nM	0.012 nM	< 0.1 nM		
COC(=O)N[C@H](C(=O)N1[C@@H](C)CC[C@H]1c1nc2ccc3cc4c(cc3c2[nH]1)OCc1cc(-c2cnc([C@@H]3C[C@@H]5CCC[C@@H]5N3C(=O)[C@@H](NC(=O)OC)C3CCOCC3)[nH]2)ccc1-4)C(C)C [IB]	0.032 nM	0.021 nM	< 0.1 nM	0.027 nM	< 0.1 nM	0.05 nM	< 0.1 nM	0.1 to 0.999 nM	0.129 nM	0.077 nM	< 0.1 nM	0.026 nM	< 0.1 nM		
CC[C@H]1CC[C@@H](c2ncc(-c3ccc4c(c3)COc3cc5c(ccc6nc([C@@H]7C[C@H](C)CN7C(=O)[C@@H](NC(=O)OC)C(C)C)[nH]c65)cc3-4)[nH]2)N1C(=O)[C@@H](NC(=O)OC)C1CCOCC1 [IC]	0.027 nM	0.024 nM	< 0.1 nM	0.02 nM	< 0.1 nM	0.052 nM	< 0.1 nM	0.1 to 0.999 nM	0.122 nM	0.116 nM	0.1 to 0.999 nM	0.012 nM	< 0.1 nM		
COC(=O)N[C@H](C(=O)N1[C@@H](C)CC[C@H]1c1ncc(-c2ccc3c(c2)COc2cc4c(ccc5nc([C@@H]6CC[C@H](C(C)C)N6C(=O)[C@@H](NC(=O)OC)C6CCOCC6)[nH]c54)cc2-3)[nH]1)C(C)C [ID]	0.038 nM	0.035 nM	< 0.1 nM	0.051 nM	< 0.1 nM	0.953 nM	0.1 to 0.999 nM	1 to 44 nM	1.81 nM	0.801 nM	0.1 to 0.999 nM	0.026 nM	< 0.1 nM		
CC[C@H]1CC[C@@H](c2nc3ccc4cc5c(cc4c3[nH]2)OCc2cc(-c3cnc([C@@H]4CC[C@H](C)N4C(=O)[C@@H](NC(=O)OC)C(C)C)[nH]3)ccc2-5)N1C(=O)[C@@H](NC(=O)OC)C(C)C [IF]	0.021 nM	0.016 nM	< 0.1 nM	0.026 nM	< 0.1 nM	0.84 nM	0.1 to 0.999 nM	0.1 to 0.999 nM	0.691 nM	0.35 nM	0.1 to 0.999 nM	0.017 nM	< 0.1 nM		
CC[C@H]1CC[C@@H](c2nc3ccc4cc5c(cc4c3[nH]2)OCc2cc(-c3cnc([C@@H]4CC[C@H](C)N4C(=O)[C@@H](NC(=O)OC)C(C)C)[nH]3)ccc2-5)N1C(=O)[C@H](NC(=O)OC)c1ccccc1 [IH]	0.021 nM	0.02 nM	< 0.1 nM	0.024 nM	< 0.1 nM	0.514 nM	0.1 to 0.999 nM	0.1 to 0.999 nM	0.194 nM	0.052 nM	< 0.1 nM	0.016 nM	< 0.1 nM		
CC[C@H]1CC[C@@H](c2nc3ccc4cc5c(cc4c3[nH]2)OCc2cc(-c3cnc([C@@H]4CC[C@H](CC)N4C(=O)[C@@H](NC(=O)OC)C4CCOCC4)[nH]3)ccc2-5)N1C(=O)[C@@H](NC(=O)OC)C(C)C [II]	0.033 nM	0.024 nM	< 0.1 nM	0.029 nM	< 0.1 nM	0.209 nM	0.1 to 0.999 nM	0.1 to 0.999 nM	0.197 nM	0.701 nM	0.1 to 0.999 nM	0.016 nM	< 0.1 nM		
CC[C@H]1CC[C@@H](c2ncc(-c3ccc4c(c3)COc3cc5c(ccc6nc([C@@H]7C[C@@H]8CCC[C@@H]8N7C(=O)[C@@H](NC(=O)OC)C(C)C)[nH]c65)cc3-4)[nH]2)N1C(=O)[C@@H](NC(=O)OC)C1CCOCC1 [IN]	0.028 nM	0.021 nM	< 0.1 nM	0.03 nM	< 0.1 nM	0.044 nM	< 0.1 nM	0.1 to 0.999 nM	0.109 nM	0.212 nM	0.1 to 0.999 nM	0.023 nM	< 0.1 nM		
CC[C@H](C)[C@H](NC(=O)OC)C(=O)N1[C@H](c2nc3ccc4cc5c(cc4c3[nH]2)OCc2cc(-c3cnc([C@@H]4CC[C@H](C)N4C(=O)[C@@H](NC(=O)OC)C4CCOCC4)[nH]3)ccc2-5)C[C@@H]2CCC[C@@H]21 [IO]	0.043 nM	0.027 nM	< 0.1 nM	0.033 nM	< 0.1 nM	0.07 nM	< 0.1 nM	0.1 to 0.999 nM	0.118 nM	0.293 nM	0.1 to 0.999 nM	0.03 nM	< 0.1 nM		
CC[C@H]1CC[C@@H](c2ncc(-c3ccc4c(c3)COc3cc5c(ccc6nc([C@@H]7C[C@@H]8CCC[C@@H]8N7C(=O)[C@@H](NC(=O)OC)C7CCOCC7)[nH]c65)cc3-4)[nH]2)N1C(=O)[C@@H](NC(=O)OC)C(C)C [IQ]	0.019 nM	0.018 nM	< 0.1 nM	0.023 nM	< 0.1 nM	0.046 nM	< 0.1 nM	< 0.1 nM	0.069 nM	0.045 nM	< 0.1 nM	0.021 nM	< 0.1 nM		
CC[C@H]1CC[C@@H](c2nc3ccc4cc5c(cc4c3[nH]2)OCc2cc(-c3cnc([C@@H]4CC[C@H](C)N4C(=O)[C@@H](NC(=O)OC)C4CCOCC4)[nH]3)ccc2-5)N1C(=O)[C@@H](NC(=O)OC)C(C)C [IR]	0.021 nM	0.018 nM	< 0.1 nM	0.018 nM	< 0.1 nM	0.084 nM	< 0.1 nM	< 0.1 nM	0.081 nM	0.091 nM	< 0.1 nM	0.017 nM	< 0.1 nM		
CC[C@H]1CC[C@@H](c2nc3ccc4cc5c(cc4c3[nH]2)OCc2cc(-c3cnc([C@@H]4C[C@H](C)CN4C(=O)[C@@H](NC(=O)OC)C(C)C)[nH]3)ccc2-5)N1C(=O)[C@@H](NC(=O)OC)C1CCOCC1 [IS]	0.021 nM	0.017 nM	< 0.1 nM	0.018 nM	< 0.1 nM	0.052 nM	< 0.1 nM	< 0.1 nM	0.083 nM	0.174 nM	0.1 to 0.999 nM	0.015 nM	< 0.1 nM		
CCC[C@H]1CC[C@@H](c2nc3ccc4cc5c(cc4c3[nH]2)OCc2cc(-c3cnc([C@@H]4CC[C@H](C)N4C(=O)[C@@H](NC(=O)OC)C(C)C)[nH]3)ccc2-5)N1C(=O)[C@@H](NC(=O)OC)C1CCOCC1 [IV]	0.053 nM	0.045 nM	< 0.1 nM	0.055 nM	< 0.1 nM			0.1 to 0.999 nM	0.426 nM	0.236 nM	0.1 to 0.999 nM	0.018 nM	< 0.1 nM	0.068 nM	< 0.1 nM
